Laboratory results taken from ChEMBL document CHEMBL3885861, “Open TG-GATES”.

Species: Rattus norvegicus
Experiment: Open TG-GATES - Regimen: Single
Type: toxicity, organism-based, Sprague-Dawley
Parameters: regimen Single, gender Male, age 6 weeks
Settings: in vivo, po, 0 mg/kg, route gavage, dose level Control; for APTT / Bas / Eos / Fbg / Hb / Ht / Lym / MCH / MCHC / Mono / Neu / PT / Plat / RBC / Ret / WBC / MCV: tissue Blood; for KIDNEY_L / KIDNEY_R / KIDNEY_TOTAL: tissue Kidney; for LIVER: tissue Liver; for ALP / ALT / AST / BUN / CRE / Ca / Cl / DBIL / GLC / IP / K / LDH / Na / PL / RALB / TBIL / TC / TG / TP / gamma-GTP: tissue Plasma

`CCOc1ccc(NC(C)=O)cc1` [PHENACETIN] showed a TERMINAL_BW (3 h) of 210.2 g, an APTT (3 h) of 17.4 s and a Bas (3 h) of 0%. The Eos (3 h) was 0.6%, the Fbg (3 h) was 292 mg/dL and the Hb (3 h) was 13.3 g/dL. It also gave a Ht (3 h) of 40.2%, a Lym (3 h) of 78.2% and an MCH (3 h) of 20.7 pg. It also gave an MCHC (3 h) of 33%, a Mono (3 h) of 3% and a Neu (3 h) of 17.8%. The PT (3 h) was 13.7 s, the Plat (3 h) was 114.8 x10_4/uL and the RBC (3 h) was 641.4 x10_4/ul. It also gave a Ret (3 h) of 8.1%, a WBC (3 h) of 96.3 x10_2/uL and a KIDNEY_L (3 h) of 0.9 g. The KIDNEY_R (3 h) was 0.9 g, the KIDNEY_TOTAL (3 h) was 1.8 g and the LIVER (3 h) was 9.1 g. It also gave an ALP (3 h) of 1765 IU/L, an ALT (3 h) of 39.6 IU/L and an AST (3 h) of 74.4 IU/L. It also gave a BUN (3 h) of 11.6 mg/dL, a CRE (3 h) of 0.2 mg/dL and a Ca (3 h) of 11.1 mg/dL. It also gave a Cl (3 h) of 105.4 meq/L, a DBIL (3 h) of 0 mg/dL and a GLC (3 h) of 169 mg/dL. It also gave an IP (3 h) of 8.8 mg/dL, a K (3 h) of 4.2 meq/L and an LDH (3 h) of 115.4 IU/L. The Na (3 h) was 142.2 meq/L, the PL (3 h) was 153.4 mg/dL and the RALB (3 h) was 2.5 g/dL. For the same molecule, the TBIL (3 h) was 0.05 mg/dL, the TC (3 h) was 87.8 mg/dL and the TG (3 h) was 53.2 mg/dL. For the same molecule, the TP (3 h) was 5.4 g/dL, the gamma-GTP (3 h) was 1.8 IU/L and the TERMINAL_BW (6 h) was 211 g. It also gave an APTT (6 h) of 18.2 s, a Bas (6 h) of 0.4% and an Eos (6 h) of 1%. It also gave a Fbg (6 h) of 290.8 mg/dL, a Hb (6 h) of 13.6 g/dL and a Ht (6 h) of 40.8%. The Lym (6 h) was 76.2%, the MCH (6 h) was 20.7 pg and the MCHC (6 h) was 33.4%. For the same molecule, the MCV (6 h) was 62.2 fL, the Mono (6 h) was 2.6% and the Neu (6 h) was 19.4%. The PT (6 h) was 14.1 s, the Plat (6 h) was 119.9 x10_4/uL and the RBC (6 h) was 656.6 x10_4/ul. It also gave a Ret (6 h) of 7.6%, a WBC (6 h) of 104.2 x10_2/uL and a KIDNEY_L (6 h) of 0.9 g. It also gave a KIDNEY_R (6 h) of 1 g, a KIDNEY_TOTAL (6 h) of 1.9 g and an LIVER (6 h) of 8.7 g. The ALP (6 h) was 1471.4 IU/L, the AST (6 h) was 74.4 IU/L and the BUN (6 h) was 9.6 mg/dL. For the same molecule, the CRE (6 h) was 0.2 mg/dL, the Ca (6 h) was 11 mg/dL and the Cl (6 h) was 106 meq/L. It also gave a DBIL (6 h) of 0 mg/dL, a GLC (6 h) of 171.6 mg/dL and an IP (6 h) of 9.3 mg/dL. The K (6 h) was 4.1 meq/L, the LDH (6 h) was 73.8 IU/L and the Na (6 h) was 144 meq/L. The PL (6 h) was 142 mg/dL, the RALB (6 h) was 2.5 g/dL and the TBIL (6 h) was 0.052 mg/dL. It also gave a TC (6 h) of 78.8 mg/dL, a TG (6 h) of 50 mg/dL and a TP (6 h) of 5.4 g/dL. For the same molecule, the gamma-GTP (6 h) was 1.4 IU/L, the TERMINAL_BW (9 h) was 210.5 g and the APTT (9 h) was 17.7 s. It also gave a Bas (9 h) of 0.2%, an Eos (9 h) of 0.8% and a Fbg (9 h) of 302.8 mg/dL. The Hb (9 h) was 13.2 g/dL, the Ht (9 h) was 39.7% and the Lym (9 h) was 77.4%. It also gave an MCH (9 h) of 21.6 pg, an MCHC (9 h) of 33.3% and an MCV (9 h) of 64.9 fL. It also gave a Mono (9 h) of 2.6%, a PT (9 h) of 13.7 s and a Plat (9 h) of 116.6 x10_4/uL. It also gave an RBC (9 h) of 611.4 x10_4/ul, a Ret (9 h) of 8.6% and a WBC (9 h) of 81.1 x10_2/uL. The KIDNEY_L (9 h) was 0.9 g, the KIDNEY_R (9 h) was 0.9 g and the KIDNEY_TOTAL (9 h) was 1.9 g. The LIVER (9 h) was 8.4 g, the ALP (9 h) was 1519.6 IU/L and the ALT (9 h) was 36.8 IU/L. The AST (9 h) was 75.4 IU/L, the BUN (9 h) was 9.2 mg/dL and the CRE (9 h) was 0.2 mg/dL. It also gave a Ca (9 h) of 10.9 mg/dL, a DBIL (9 h) of 0.002 mg/dL and a GLC (9 h) of 163.6 mg/dL. The IP (9 h) was 9.8 mg/dL, the K (9 h) was 4 meq/L and the LDH (9 h) was 75.8 IU/L. The Na (9 h) was 143.4 meq/L, the PL (9 h) was 145.6 mg/dL and the RALB (9 h) was 2.5 g/dL. The TBIL (9 h) was 0.066 mg/dL, the TC (9 h) was 81.6 mg/dL and the TG (9 h) was 44.2 mg/dL. For the same molecule, the TP (9 h) was 5.4 g/dL, the gamma-GTP (9 h) was 1.2 IU/L and the TERMINAL_BW (24 h) was 226.9 g. It also gave an APTT (24 h) of 17.2 s, a Bas (24 h) of 0% and an Eos (24 h) of 1%. The Fbg (24 h) was 296.2 mg/dL, the Hb (24 h) was 13.3 g/dL and the Ht (24 h) was 40.1%. For the same molecule, the Lym (24 h) was 82.4%, the MCH (24 h) was 21.1 pg and the MCHC (24 h) was 33%. The MCV (24 h) was 63.7 fL, the Mono (24 h) was 2.2% and the Neu (24 h) was 13.6%. For the same molecule, the PT (24 h) was 13.6 s, the Plat (24 h) was 120.9 x10_4/uL and the RBC (24 h) was 630.4 x10_4/ul. It also gave a Ret (24 h) of 7.8%, a WBC (24 h) of 100.3 x10_2/uL and a KIDNEY_L (24 h) of 1 g. It also gave a KIDNEY_R (24 h) of 1 g, a KIDNEY_TOTAL (24 h) of 1.9 g and an LIVER (24 h) of 10.7 g. The ALP (24 h) was 1883.2 IU/L, the ALT (24 h) was 37.2 IU/L and the AST (24 h) was 66.2 IU/L. For the same molecule, the BUN (24 h) was 15.2 mg/dL, the CRE (24 h) was 0.2 mg/dL and the Ca (24 h) was 11.1 mg/dL. For the same molecule, the Cl (24 h) was 104.4 meq/L, the DBIL (24 h) was 0.008 mg/dL and the GLC (24 h) was 179 mg/dL. It also gave an IP (24 h) of 7.9 mg/dL, a K (24 h) of 4.2 meq/L and an LDH (24 h) of 106.8 IU/L. It also gave a PL (24 h) of 161.8 mg/dL, an RALB (24 h) of 2.6 g/dL and a TBIL (24 h) of 0.038 mg/dL. The TC (24 h) was 81.8 mg/dL, the TG (24 h) was 122.2 mg/dL and the TP (24 h) was 5.7 g/dL.
